We go through 92 compounds from a melting point compilation (Tetko et al.; mined from patent text by program, amines drawn as free bases though some values may be those of a salt).

The term melting point denotes the temperature, or range, at which the solid turns liquid. Compound `Cc1ccc(C2c3c(C)c(N4CCN(c5cc(C)cc(C)c5)CC4)c(C)c(C)c3OC2(C)C)cc1` (configuration not stated) gave a melting point of 147 to 149 °C.
With `O=C(c1cccnc1)N1CCC(c2ccccc2F)=N1`, the melting point was in the range of 89 to 91 °C.
`O=C(O)c1cccc(CCl)c1`: the melting point was 134 to 136 °C.
Under `CN(c1cc(OCCCS(C)(=O)=O)cc2cc(C(=O)O)[nH]c12)S(=O)(=O)c1ccccn1` stands 207 to 208 °C; under `CCOC(=O)c1cn2c(nc1=O)CCC2C` (configuration not stated), 130 °C; under `Cc1cccc(Nc2cc(Nc3ccc(OCC(=O)N(C)C)c(Cl)c3)ncn2)c1`, 190 to 193 °C.
Take `COC(=O)C1C=C2c3cccc4[nH]c(C)c(c34)CC2N(C)C1` (configuration not stated): the melting point is 154 °C.
Take `C/C=C/c1c(N)nc(-c2ccc(Cl)c(OC)c2F)nc1C(=O)OC`: the melting point lay within 133 to 135 °C.
Compound `COc1ccc(C(=O)Nc2ccccc2)cc1NC(=S)Nc1ccccc1C` showed a melting point of 172 to 174 °C.
Under `COc1ccc(NCC(=O)N2CCC(Oc3ccc(Cl)cc3)CC2)cc1` stands 127 to 130 °C.
The result for `COC(=O)C(C(=O)C(C)C)=C(N)c1ccc(F)cc1` reads 85.8 to 86.6 °C; that for `CCOc1ccc(C(C)=O)cc1S(=O)(=O)NC(=O)Nc1nc(OC)cc(OC)n1`, 192 to 193 °C.
Compound `O=C(O)c1ccc(-c2nc(-c3c(F)c(F)c(F)c(F)c3F)cs2)cc1` yielded a melting point of 273 to 274 °C.
In turn, `COc1cc(OC)c2c(=O)[nH]c(-c3ccc(OCCNC(C)C)c(-c4ccc(S(C)(=O)=O)cc4)n3)nc2c1` returned a melting point of 114 to 116 °C.
Under `O=C(O)N1C=CC=NC=C1` stands 238 to 240 °C; under `O=c1oc(-c2cccc(Oc3ccccc3)c2)cc(O)c1SCCc1ccccc1`, 114 to 115 °C; under `COC(C)c1cc2c(=O)n(NS(C)(=O)=O)c(=O)[nH]c2cc1C(F)(F)F` (configuration not stated), 233 to 236 °C.
Under `O=C(Cl)c1cc(C#Cc2ccccc2)c(C(=O)Cl)cc1C#Cc1ccccc1` stands 174 to 180 °C; under `Cc1cnc(C#N)c(Cl)n1`, 63 to 65 °C; under `CC(C)C1(C)N=C(c2c(C(=O)O)ccc3ccsc23)NC1=O` (configuration not stated), 200 to 202 °C.
Compound `COc1ccc2nc(CN3CCN(c4ccc(Cl)cc4Cl)CC3)cn2c1` yielded a melting point of 130 °C.
The compound `COc1ccc2c(c1)CCC1C2CCC2(C)C1CCC2N(C)CCC(C)C` (configuration not stated) showed a melting point of 80 to 80.5 °C.
Compound `CCOCCOCCn1c(C=O)cc2c3c(c(-c4ccccc4Cl)cc21)C(=O)NC3=O` had a melting point of 162 to 165 °C.
Under `O=C(C=C1C(=O)N(c2ccccc2)C(=O)N1c1ccccc1)Nc1ccccc1` stands 214 °C.
Under `CN(Cc1cc2c3c(c1)c(=O)c(C(=O)NCc1ccc(F)cc1)cn3CC(=O)N2C)C[C@@H](O)c1ccsc1` stands 150 to 152 °C; under `NC(C(=O)O)c1ccc(C(=O)O)cc1-c1ccccc1` (configuration not stated), 238 to 240 °C; under `CN(C(=O)OC(C)(C)C)c1cccc(-c2nc(=O)c3ccccc3s2)n1`, 196 °C.
Under `CC(C)c1nc2cc(NC(=O)OC(C)(C)C)ccn2n1` stands 215 to 218 °C; under `CC(=O)Oc1ccc2c(c1)CCCO2`, 76 to 77 °C.
The compound `CCCCSc1c(CC(C)(C)C(=O)O)n(Cc2ccc(Cl)cc2)c2ccc(C(C)C)cc12` came in with a melting point of 129 to 130 °C.
The result for `Cc1cc(Cc2ccccc2)nc(Nc2ccc(-n3ccnc3CO)cc2)n1` reads 95 to 98 °C.
The compound `CCCCc1nc2cccc(CC#N)c2n1Cc1ccccc1Cl` displayed a melting point of 124 to 125 °C.
Compound `Cc1cc(-c2ccc(F)cc2)c(C=CC=O)o1` yielded a melting point of 89 to 90 °C.
The result for `CCN(CC)CCOc1ccc(Nc2ncc3c(n2)N(C(C)C)C(=O)N(c2c(Cl)cccc2Cl)C3)cc1` reads 125 °C; that for `COc1ccc(Nc2nc(N)c3[nH]c(C)cc3n2)cc1`, 161 to 163 °C; that for `Cc1ccc(Nc2ccc(OC(F)(F)F)cc2)cc1`, 43.7 °C.
The result for `CCCOc1nc2ccccc2[nH]1` reads 163 to 164 °C; that for `NC(=S)NCc1ccccc1Cl`, 120 to 122 °C.
Under `CCc1ccc2c(c1)C(c1ccccc1F)=NCc1cnc(C)n1-2` stands 152 to 154 °C.
In turn, `COc1c(Cl)c(OC)c2cnoc2c1Cl` showed a melting point of 138 to 140 °C.
The result for `COc1ccc(-c2coc3c(C)c(O)ccc3c2=O)cc1` reads 235 °C.
`COc1ccc(C(=O)Nc2ccncc2)c2c1[nH]c1ccccc12` yielded a melting point greater than 250 °C.
Compound `CCCC[C@H](NC(=O)[C@H](CCCCNC(=O)OC(C)(C)C)NC(=O)OCc1ccccc1)C(=O)CSCc1ccco1` showed a melting point of 60 to 63 °C.
Turning to `N#CNC=NCc1ncc(C(F)(F)F)cc1Cl`, the melting point is 106 to 108 °C.
Turning to `OC[C@@H](O)CCc1ccccc1`, the melting point is 34 to 36 °C.
The compound `CCOc1cc2c(cc1OCC)C(C(C#N)SCCC(=O)O)=NCC2` (configuration not stated) came in with a melting point of 106 to 108 °C.
The result for `CCCC(=O)c1cnc2c(OCC)nccc2c1OS(C)(=O)=O` reads 115 to 116 °C.
On to `O=c1c2c(c3cccnc3n1-c1ccccc1)OCCC2`, for which the melting point was 253 to 255 °C.
The result for `COc1cc2c(c(OC(C)=O)c1)C1CCC3(C)C(OC(=O)C(F)(F)F)CCC3C1CC2` (configuration not stated) reads 137 to 138 °C; that for `COc1ccccc1N1CCN(CCCNC(=O)c2csc3c(=O)cc(-c4ccccc4)oc23)CC1`, 161 to 162 °C.
Consider `CC(=O)OC1CCCCC1n1c(Br)nc2cc(Cl)c(Cl)cc21` (configuration not stated), for which the melting point was in the range of 167 to 169 °C.
`O=c1ccc2c(O)cc(O)cc2[nH]1` had a melting point greater than 300 °C.
As for `COc1ccc(N2CCOCC2)c2sc(-c3ncc(-c4csc5ccccc45)[nH]3)nc12`, the melting point fell in the range of 161 to 162 °C.
In the case of `Cc1oc(-c2ccccc2)nc1COc1nn(Cc2ccc(Oc3ccccc3)cc2)cc1/C=C/C(=O)O`, the melting point lay in the range of 210 to 211 °C.
The compound `CCC(C)COc1ccc(-c2ccc(O)cc2)cc1` (configuration not stated) gave a melting point of 80.5 °C.
Under `CC(=O)N1C(=O)C(C(=O)c2ccco2)c2ccccc21` (configuration not stated) stands 138 °C; under `O=C(Nc1cccc(S(=O)(=O)NCc2ccccn2)c1)c1cnn2c(C(F)(F)F)cc(-c3ccc(C(F)(F)F)cc3)nc12`, 229 °C.
Under `CC(NC(=O)c1ccc(N)cc1)C(=O)O` (configuration not stated) stands 198 to 199 °C; under `O=C1C(O)=C([N+](=O)[O-])C(=O)c2ccc(F)cc21`, 152 °C; under `COc1ccc(Nc2cc(NC(C)C)ncn2)cc1`, 180 to 182 °C.
Compound `Nc1c2ccccc2nc2c(=O)[nH][nH]c(=O)c12` gave a melting point of 167 to 168 °C.
Regarding `COc1ccc(C(=O)C=Cc2cccc([N+](=O)[O-])c2)c(OC)c1OC`, the melting point is 130 to 131 °C.
Compound `NNC(=O)c1ccc(OC(F)(F)C(F)(F)F)cc1` came in with a melting point of 117 to 120 °C.
`CCOc1csc(C)c1C1OC(=O)NC1=O` (configuration not stated): the melting point lay within 136 to 138 °C.
Under `CCCCCCOc1ccc(CCC(=O)O)cc1` stands 70 to 72 °C.
Under `Cc1c(O)cccc1C(=O)N[C@@H](Cc1ccccc1)[C@H](O)C(=O)N1CSC(C)(C)[C@H]1C(=O)N[C@@H]1CCc2ccccc21` stands 128 to 130 °C; under `Cc1nc(NN)c2c(n1)NC(=O)CO2`, 262 to 264 °C; under `COc1ccc(-c2ccc3[nH]c(C(=O)O)cc3c2)cc1`, greater than 230 °C.
Take `CCCCCCn1nnc(NC(=O)Nc2c(C(C)C)cccc2C(C)C)n1`: the melting point lay in the range of 154 to 156 °C.
Under `O=C(NS(=O)(=O)C=Cc1ccccc1)N1CCCC1` stands 201 to 204 °C; under `COC(=O)[C@H]1CC[C@H](NC(=O)c2cc(-c3ccc(C(=N)N)cc3)nn(Cc3ccccc3)c2=O)CC1`, 168 to 173 °C.
Under `C=CCOc1cc2c(cc1CC=C)N(CC=C(C)C)C(=O)CC2` stands 86 to 88 °C; under `c1ccc(-c2ncc(-c3cnc[nH]3)cn2)cc1`, 216 °C; under `CCc1c(C(=O)OC(C)C)ncc2[nH]c3ccc4sc(NC(C)=O)nc4c3c12`, 208 to 210 °C.
Under `CCCCc1ccc(C(=O)NCCC(C)(C)C)cc1` stands 70 to 71 °C; under `CC(C)(C)OC(=O)NCc1cc(-c2cccnc2)no1`, 67 to 69 °C; under `O=C(O)CCc1cc(OCCCc2cn(-c3ccc(C(F)(F)F)cn3)nc2C2CCCCC2)nn1-c1ccccc1`, 182 to 183 °C.
Regarding `COC(=O)[C@H]1CC[C@H](Oc2ccc(C(=O)O)cc2)CC1`, the melting point was found to be 162 °C.
`O=Cc1cc2c3ccccc3ccc2c2sccc12` returned a melting point of 162 °C.
`COC(=O)C1=C(C)NC(C)=C(C(=O)OC)C1c1cccc(N)c1` gave a melting point of 214 to 215 °C.
The result for `Cc1nc(N)nc(N)c1-c1cc(N)ccc1Cl` reads 117 to 121 °C; that for `O=C(c1ccc(Cl)cc1)N1CCC(=Cc2ccc(C3=NCCO3)cc2F)CC1`, 150 to 152 °C.
The result for `CCCCC(CC(=O)Nc1cc(C(N)=O)ccc1C(C)(C)C)c1ccc(OC)cc1OC` (configuration not stated) reads 186 to 188 °C; that for `CC(C#N)(c1ccc(Cl)c(C(F)(F)F)c1)c1ccc(N)cc1Cl` (configuration not stated), 180 °C.
The result for `CC(C)c1nc2c([nH]1)c(=S)[nH]c(=O)n2-c1cccc(Cl)c1` reads 290 to 293 °C; that for `ON(Cn1nnc2ccccc21)Cn1nnc2ccccc21`, 173 to 174 °C; that for `CN1CCN(c2ccccc2C(O)C2SCCNC2=O)CC1` (configuration not stated), 137 to 139 °C.
On to `COC(C)COC(=O)Nc1ccc(C2=NNC(=O)CC2C)cc1` (configuration not stated), for which the melting point lay in the range of 173 to 175 °C.
The result for `O=C(CCc1ccc(Br)cc1)Cn1ccnc1` reads 71 to 73 °C.
The result for `CC1(C)Oc2ccc(C#N)cc2[C@@H](NC(=O)Nc2cccc(-c3cnc[nH]3)c2)[C@@H]1O` reads 170 to 180 °C.
`Cc1ccc(C2=CC(O)CN(C)C2)cc1` (configuration not stated) yielded a melting point of 67 to 69 °C.
The compound `OCc1sc(Cl)nc1-c1ccc(F)cc1` displayed a melting point of 97 to 98.5 °C.
